Results as given in the NIST ThermoML archive (doi:10.1016/j.jct.2016.06.012).
± gives the expanded uncertainty stated by the source.

Experiment: xn = mol fraction of the nth substance listed
Conditions: 100 kPa, Liquid; for viscosity: Capillary tube (Ostwald / Ubbelohde) method; for mass density: Vibrating tube method

CCC[n+]1ccn(C)c1C.O=S(=O)([N-]S(=O)(=O)C(F)(F)F)C(F)(F)F + O=C1CCCO1
Conditions	mass density [kg/m3]	viscosity [mPa·s]
293.15 K, x1 = 0.0505	1184.15 ± 9.6	2.47 ± 0.06
293.15 K, x1 = 0.1001	1226.3 ± 9.9	3.4 ± 0.08
293.15 K, x1 = 0.1492	1259.98 ± 10	4.72 ± 0.11
293.15 K, x1 = 0.1998	1288.55 ± 10	6.2 ± 0.14
293.15 K, x1 = 0.3008	1332.65 ± 11	9.95 ± 0.22
293.15 K, x1 = 0.4031	1365.48 ± 11	15.94 ± 0.35
293.15 K, x1 = 0.5048	1390.46 ± 11	25.66 ± 0.57
293.15 K, x1 = 0.6031	1409.62 ± 11	38.98 ± 0.85
293.15 K, x1 = 0.6973	1424.67 ± 11	54.53 ± 1.2
293.15 K, x1 = 0.7994	1438.25 ± 12	74.49 ± 1.6
293.15 K, x1 = 0.8711	1446.46 ± 12	89.77 ± 2.1
293.15 K, x1 = 1	1459.14 ± 12	121.7 ± 3
298.15 K, x1 = 0.0505	1179.18 ± 9.6	2.26 ± 0.05
298.15 K, x1 = 0.1001	1221.4 ± 9.8	3.07 ± 0.07
298.15 K, x1 = 0.1492	1255.08 ± 10	4.21 ± 0.1
298.15 K, x1 = 0.1998	1283.68 ± 10	5.44 ± 0.12
298.15 K, x1 = 0.3008	1327.83 ± 11	8.61 ± 0.19
298.15 K, x1 = 0.4031	1360.68 ± 11	13.23 ± 0.29
298.15 K, x1 = 0.5048	1385.67 ± 11	20.56 ± 0.45
298.15 K, x1 = 0.6031	1404.85 ± 11	30.47 ± 0.66
298.15 K, x1 = 0.6973	1419.93 ± 11	42.29 ± 0.91
298.15 K, x1 = 0.7994	1433.53 ± 11	57.35 ± 1.2
298.15 K, x1 = 0.8711	1441.74 ± 12	69.78 ± 1.5
298.15 K, x1 = 1	1454.44 ± 12	92.8 ± 2.1
303.15 K, x1 = 0.0505	1174.28 ± 9.5	2.1 ± 0.05
303.15 K, x1 = 0.1001	1216.49 ± 9.8	2.82 ± 0.07
303.15 K, x1 = 0.1492	1250.18 ± 10	3.78 ± 0.09
303.15 K, x1 = 0.1998	1278.79 ± 10	4.88 ± 0.11
303.15 K, x1 = 0.3008	1322.96 ± 11	7.6 ± 0.17
303.15 K, x1 = 0.4031	1355.84 ± 11	11.41 ± 0.25
303.15 K, x1 = 0.5048	1380.86 ± 11	17.18 ± 0.37
303.15 K, x1 = 0.6031	1400.07 ± 11	24.6 ± 0.53
303.15 K, x1 = 0.6973	1415.16 ± 11	33.28 ± 0.72
303.15 K, x1 = 0.7994	1428.78 ± 11	44.5 ± 0.95
303.15 K, x1 = 0.8711	1437 ± 12	54.92 ± 1.2
303.15 K, x1 = 1	1449.72 ± 12	72.1 ± 1.6
308.15 K, x1 = 0.0505	1169.38 ± 9.5	1.96 ± 0.05
308.15 K, x1 = 0.1001	1211.58 ± 9.8	2.56 ± 0.06
308.15 K, x1 = 0.1492	1245.28 ± 10	3.45 ± 0.08
308.15 K, x1 = 0.1998	1273.9 ± 10	4.42 ± 0.1
308.15 K, x1 = 0.3008	1318.1 ± 11	6.83 ± 0.15
308.15 K, x1 = 0.4031	1351.01 ± 11	9.99 ± 0.22
308.15 K, x1 = 0.5048	1376.06 ± 11	14.57 ± 0.32
308.15 K, x1 = 0.6031	1395.28 ± 11	20.33 ± 0.44
308.15 K, x1 = 0.6973	1410.4 ± 11	27.25 ± 0.58
308.15 K, x1 = 0.7994	1424.03 ± 11	35.98 ± 0.77
308.15 K, x1 = 0.8711	1432.26 ± 11	44.23 ± 0.94
308.15 K, x1 = 1	1445 ± 12	57.76 ± 1.2
313.15 K, x1 = 0.0505	1164.47 ± 9.4	1.82 ± 0.04
313.15 K, x1 = 0.1001	1206.67 ± 9.7	2.36 ± 0.05
313.15 K, x1 = 0.1492	1240.38 ± 10	3.18 ± 0.07
313.15 K, x1 = 0.1998	1269.01 ± 10	4.04 ± 0.09
313.15 K, x1 = 0.3008	1313.24 ± 11	6.09 ± 0.13
313.15 K, x1 = 0.4031	1346.18 ± 11	8.71 ± 0.19
313.15 K, x1 = 0.5048	1371.25 ± 11	12.55 ± 0.27
313.15 K, x1 = 0.6031	1390.5 ± 11	17.39 ± 0.37
313.15 K, x1 = 0.6973	1405.64 ± 11	22.52 ± 0.48
313.15 K, x1 = 0.7994	1419.29 ± 11	30.01 ± 0.64
313.15 K, x1 = 0.8711	1427.53 ± 11	36.05 ± 0.77
313.15 K, x1 = 1	1440.28 ± 12	46.53 ± 0.98
318.15 K, x1 = 0.0505	1159.57 ± 9.4	1.68 ± 0.04
318.15 K, x1 = 0.1001	1201.76 ± 9.7	2.2 ± 0.05
318.15 K, x1 = 0.1492	1235.48 ± 9.9	2.97 ± 0.07
318.15 K, x1 = 0.1998	1264.13 ± 10	3.73 ± 0.08
318.15 K, x1 = 0.3008	1308.38 ± 10	5.5 ± 0.12
318.15 K, x1 = 0.4031	1341.35 ± 11	7.79 ± 0.17
318.15 K, x1 = 0.5048	1366.46 ± 11	10.94 ± 0.24
318.15 K, x1 = 0.6031	1385.73 ± 11	15.01 ± 0.32
318.15 K, x1 = 0.6973	1400.88 ± 11	19.07 ± 0.41
318.15 K, x1 = 0.7994	1414.55 ± 11	24.95 ± 0.53
318.15 K, x1 = 0.8711	1422.81 ± 11	29.91 ± 0.64
318.15 K, x1 = 1	1435.57 ± 11	38.4 ± 0.81
323.15 K, x1 = 0.0505	1154.66 ± 9.4	1.58 ± 0.04
323.15 K, x1 = 0.1001	1196.85 ± 9.7	2.04 ± 0.05
323.15 K, x1 = 0.1492	1230.58 ± 9.9	2.73 ± 0.06
323.15 K, x1 = 0.1998	1259.24 ± 10	3.38 ± 0.08
323.15 K, x1 = 0.3008	1303.52 ± 10	4.93 ± 0.11
323.15 K, x1 = 0.4031	1336.53 ± 11	6.9 ± 0.15
323.15 K, x1 = 0.5048	1361.66 ± 11	9.56 ± 0.21
323.15 K, x1 = 0.6031	1380.96 ± 11	12.76 ± 0.27
323.15 K, x1 = 0.6973	1396.13 ± 11	16.4 ± 0.35
323.15 K, x1 = 0.7994	1409.83 ± 11	20.66 ± 0.44
323.15 K, x1 = 0.8711	1418.1 ± 11	24.69 ± 0.53
323.15 K, x1 = 1	1430.87 ± 11	31.89 ± 0.67
